Laboratory results reported in patent US20060239988A1, “Neuronal regeneration and compound administration methods” (priority 2003, published 2006).

Assays:
[1] = target: pERK with vimentin (Homo sapiens, UniProt P28482); settings: EGTA 100 millimolar
Protocol: (§1) Pull-down assays and co-immunoprecipitations: Sciatic nerve axoplasm (500 micrograms) was pre-cleared for 1 hour with 80% protein G-Sepharose (Amersham Bioscience). Following overnight incubation with primary antibody, complexes were incubated on protein-G beads for 2 hours, washed extensively and eluted by boiling in SDS-PAGE sample buffer before loading on gels for Western blot analysis. For co-immunoprecipitation in the presence of competitors, 2 micromolar NLS (SEQ ID NO: 2) or reverse-NLS (SEQ ID NO: 3) peptide was added to the axoplasm for overnight incubation at 4 degrees centigrade. For direct pull-downs, GST-pERK (0.5 microgram) or importin-beta (1 microgram) was equilibrated in PBS or NTB and added to 500 microgram aliquots of axoplasm from different post-lesion times. […] All pull-downs were washed twice with 0.2 molar NaCl in PBS or NTB and twice again with PBS or NTB before elution in SDS-PAGE sample buffer for loading on gels.

[2] = tested on: vimentin and peripherin; settings: calpeptin 100 micromolar applied to the nerve by injection
[3] = tested on: importin-beta; settings: CHX 10 micrograms/ml, ActD 5 micrograms/ml
Protocol: Electrophoretic gel autoradiography: In order to evaluate whether importin-beta is synthesized in axons, sciatic nerve segments were incubated for 6 hours in Met/Cys-deficient DMEM medium (Gibco-BRL) containing 1 mCi/ml of [35]S-Met/Cys (Amersham Bioscience), with or without 10 micrograms/ml of the translation inhibitor cycloheximide (CHX, Sigma) or 5 micrograms/ml of the transcription inhibitor actinomycin D (ActD, Sigma), followed by extrusion of the axoplasm into nuclear transport buffer. The extruded axoplasm was immunoprecipitated with anti importin-beta antibody, and the immunoprecipitate was resolved via 10% SDS-PAGE. Following electrophoresis, the gel was dried and analyzed via autoradiography using FujiFilm BAS2500.

[4] = target: importin-beta (Homo sapiens, UniProt Q14974)
Sequence of importin-beta (Homo sapiens, UniProt Q14974) (Q14974 whole entry): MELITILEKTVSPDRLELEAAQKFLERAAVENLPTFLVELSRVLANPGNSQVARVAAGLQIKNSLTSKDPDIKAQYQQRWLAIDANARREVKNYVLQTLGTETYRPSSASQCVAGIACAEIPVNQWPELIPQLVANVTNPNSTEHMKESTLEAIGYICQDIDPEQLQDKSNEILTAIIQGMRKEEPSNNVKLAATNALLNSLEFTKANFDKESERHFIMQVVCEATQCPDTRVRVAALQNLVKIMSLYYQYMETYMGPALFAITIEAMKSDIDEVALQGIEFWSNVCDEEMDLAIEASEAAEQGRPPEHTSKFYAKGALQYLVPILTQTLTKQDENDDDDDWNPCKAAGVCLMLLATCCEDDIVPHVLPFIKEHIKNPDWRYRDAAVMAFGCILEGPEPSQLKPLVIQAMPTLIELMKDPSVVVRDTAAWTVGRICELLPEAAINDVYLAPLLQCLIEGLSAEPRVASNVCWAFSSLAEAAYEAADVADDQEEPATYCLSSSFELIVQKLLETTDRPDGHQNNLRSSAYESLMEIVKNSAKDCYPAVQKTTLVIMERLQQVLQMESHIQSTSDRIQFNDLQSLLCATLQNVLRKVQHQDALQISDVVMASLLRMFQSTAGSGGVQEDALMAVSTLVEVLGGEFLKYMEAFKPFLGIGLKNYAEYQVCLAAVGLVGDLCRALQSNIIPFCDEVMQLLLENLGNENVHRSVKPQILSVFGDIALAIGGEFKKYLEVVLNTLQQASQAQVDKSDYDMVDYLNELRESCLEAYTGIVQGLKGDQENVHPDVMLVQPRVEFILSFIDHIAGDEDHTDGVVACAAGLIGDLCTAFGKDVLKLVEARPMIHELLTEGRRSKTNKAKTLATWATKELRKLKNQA
Sequence of importin-beta (Homo sapiens, UniProt Q14974) (P02544 whole entry partner): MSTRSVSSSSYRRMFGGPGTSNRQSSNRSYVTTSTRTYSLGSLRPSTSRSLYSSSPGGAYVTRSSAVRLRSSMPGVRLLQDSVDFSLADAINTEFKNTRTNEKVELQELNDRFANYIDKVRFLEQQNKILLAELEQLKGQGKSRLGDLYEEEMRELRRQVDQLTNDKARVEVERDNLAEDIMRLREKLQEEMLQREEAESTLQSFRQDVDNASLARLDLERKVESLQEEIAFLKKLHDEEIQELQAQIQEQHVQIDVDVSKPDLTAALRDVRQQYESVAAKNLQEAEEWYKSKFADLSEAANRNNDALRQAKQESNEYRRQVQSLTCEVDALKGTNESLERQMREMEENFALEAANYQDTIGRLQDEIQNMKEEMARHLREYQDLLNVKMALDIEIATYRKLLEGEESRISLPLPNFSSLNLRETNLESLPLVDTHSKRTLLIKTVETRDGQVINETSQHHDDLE
Protocol: GST alone was used as a negative control.
as §1

[5] = target: pERK (Homo sapiens, UniProt P28482)
Sequence of pERK (P28482 whole entry): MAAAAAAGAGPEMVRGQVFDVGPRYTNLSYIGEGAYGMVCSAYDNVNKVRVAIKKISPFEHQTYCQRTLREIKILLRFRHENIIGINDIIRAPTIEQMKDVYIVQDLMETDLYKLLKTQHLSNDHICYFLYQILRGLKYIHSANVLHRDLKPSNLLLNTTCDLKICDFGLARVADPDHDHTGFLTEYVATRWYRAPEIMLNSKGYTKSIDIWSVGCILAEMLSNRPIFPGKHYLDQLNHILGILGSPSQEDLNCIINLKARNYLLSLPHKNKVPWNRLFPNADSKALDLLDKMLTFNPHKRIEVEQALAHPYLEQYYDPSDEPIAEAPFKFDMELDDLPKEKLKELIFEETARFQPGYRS
Sequence of pERK (Q14974 whole entry partner): as the sequence (Q14974 whole entry) above
Sequence of pERK (P02544 whole entry partner): as the sequence (P02544 whole entry partner) above
Protocol: (§2) Alkaline phosphatase (AP; 2 units; Roche, Mannheim, Germany) or axoplasm from injured nerve (100 micrograms) was then added for an additional 30 minutes. Complexes were purified over Nickel-NTA-Agarose followed by Western blot analysis for pERK. Alkaline phosphatase activity was verified with the synthetic substrate p-nitrophenyl phosphate (pNPP, Catalog # S0942, Sigma) dissolved in 0.1 molar glycine buffer (0.1 molar glycine, 1 millimolar MgCl2, 1 millimolar ZnCl2; pH 10.4) for a stock solution of 1 mg/ml. […] The yellow hydrolysis product was quantified spectrophotometrically at 405 nm.

[6] = tested on: alkaline phosphatase; settings: identical concentrations of vimentin
Protocol: as §2

[7] = target: pERK2 (Homo sapiens, UniProt P28482); settings: in-vitro, increased at calcium up to 1 millimolar
Sequence of pERK2 (P28482 whole entry): as the sequence (P28482 whole entry) above
Sequence of pERK2 (P02544 whole entry partner): as the sequence (P02544 whole entry partner) above
Protocol: as §1

Sequence of pERK with vimentin (P28482 2-360): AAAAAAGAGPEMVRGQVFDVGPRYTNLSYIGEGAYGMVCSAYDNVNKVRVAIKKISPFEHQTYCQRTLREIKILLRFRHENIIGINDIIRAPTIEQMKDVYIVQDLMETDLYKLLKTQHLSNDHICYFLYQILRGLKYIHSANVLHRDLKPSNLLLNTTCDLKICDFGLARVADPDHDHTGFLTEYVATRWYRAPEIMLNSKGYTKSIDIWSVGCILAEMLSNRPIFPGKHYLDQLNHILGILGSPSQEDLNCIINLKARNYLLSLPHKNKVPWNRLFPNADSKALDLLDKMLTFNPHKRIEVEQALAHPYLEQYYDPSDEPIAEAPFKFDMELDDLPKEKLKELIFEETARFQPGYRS

## EGTA
[1]
  interaction of GST-pERK with vimentin in axoplasm: blocked

## CCCC[C@@H](C=O)NC(=O)[C@H](CC(C)C)NC(=O)OCc1ccccc1 [calpeptin]
[2]
  lower molecular mass bands of vimentin and peripherin: disappeared

## actinomycin D [ActD]
[3]
  formation of radioactive importin-beta protein: merely reduced

## C[C@@H]1C[C@@H]([C@H](O)CC2CC(=O)NC(=O)C2)C(=O)[C@@H](C)C1 [CHX, cycloheximide]
[3]
  formation of radioactive importin-beta protein: not formed

## vimentin
[4]
  effect of changing calcium concentrations on the vimentin-importin-beta interaction: little or no effect
[4]; did not precipitate with GST alone
  pull-down with GST-importin-beta: readily pulled down
[5]; 2 micrograms vimentin, varied calcium
  calcium dependence of protection of pERK2 from dephosphorylation: calcium dependent manner
[5]; three-fold to six-fold molar ratio to pERK, alkaline phosphatase or axoplasm
  protection of pERK2 from the phosphatases: almost complete protection
[6]
  hydrolysis of p-nitrophenyl phosphate by alkaline phosphatase: no effect
[7]
  vimentin binding to pERK2: calcium dependent
